One molecule from patent EP0004835A1, “Ethanolamine compounds, processes for their preparation, pharmaceutical preparations containing them and their medicinal use” (priority 1978, dated 1979) can be followed below.

Data set [1] concerns histamine induced bronchospasm. Briefly: Bronchospasmolytic effect in anaesthetized cat (simultaneous recording). The data set is classed as in vivo. Particulars: narcotized cat, i.v. (brachial vein); based on molar dose giving 30 % decrease of histamine induced bronchospasm; terbutaline = 1; hydrochloride. Here is the method: (§1) A. Simultaneous recording of bronchospasmolytic effect, tremorogenic effect and heart stimulating effect
(§2) The bronchospasmolytic effect and the tremorogenic effect were measured simultaneously in anaesthetized cat.
(§3) The method used is described in detail by 0 A T Olsson, Acta pharmacol et toxicol 34, 106-114 (1974).
(§4) Cats weighing 2.5-3.5 kg are anaesthetized with pento- barbital (mebumalum NFN) at first by an intraperitoneal injection (30 mg/kg) and afterwards by continuous intravenous infusion to keep the level of anaesthesia constant during the experiment.
The trachea is cannulated and the lungs inflated with room air by means of a constant volume Braun-respirator. The frequency is 15-20 per min and the tidal volume 8-10 ml per kg, or just sufficient to suppress spontaneous breathing movements and to give about 150 ml/kg/min. The change in tidal volume from administered constricting agents is measured as the amount of air overflow from the delivery of a constant volume to a fixed respiration. The pressure is determined by a water (60-70 mm) pressure threshold and respiratory overflow determined by means of a Grass-volumetric pressure transducer PT 5A. Bronchial tone is increased by inhalation of a histamine aerosol generated in a Roth-Petersen nebulizer from a solution containing 0.1-0.3 mg/ml of histamine and made up to 5 % by glycerol. The nebulizer is connected to the inlet of the respirator when bronchospasm is to be produced. When the respiratory overflow has reached an even level, .the compound to be tested for bronchorealxing activity is injected into the brachial vein.
(§5) The bronchospasmolytic effect is measured as the dose, calculated in moles per kg bodyweight of the test animal, which gives 30 % decrease of the histamine induced bronchospasm. […] The heart stimulating effect is measured as the dose, calculated in moles per kg bodyweight of the test animal, which gives 25 % increase in the heart frequency.

Data set [2] relates to electrically induced contractions of the soleus muscle. The data set is described as follows: Tremorogenic effect in anaesthetized cat (soleus muscle, simultaneous recording). The format is in vivo. Particulars: narcotized cat, i.v.; based on molar dose giving 30 % decrease of electrically induced soleus contractions; terbutaline = 1; hydrochloride. Here is the method: as §1, §2, §3, §4
The soleus muscle in the hind limb, consisting mainly a -slow contracting fibres, is prepared essentially according to Bowman & Zaimis, J Physiol 144, 92-107 (1958). The muscle is enclosed in a chamber made of a rubbercovered plastic "hair-curler". The entire leg is wrapped in metal foil covered with plastic to keep the temperature constant at 35-36°C (controlled by thermo couples in the.leg). The cat is placed on its back on a thermostatically controlled operation table and the right hind limb fixed, special care being taken not to impede the blood flow.The tendon is cut and attached to a Grass strain gauge (FT 10C). The isometric tension of the muscle is calibrated to 50 g (resting tension) and 500 g (maximal tension). A plexiglas shielded bipolar Pt-electrode is placed on the tibialis nerve, near the soleus. The incomplete tetanic contractions of the muscle are elicited by a square wave pulse stimulation of the nerve by the use of a Grass S48 stimulator. The pulse duration is 0.05 msec, with frequencies selected in the range 8-12 Hz and the strength between 5-8. volts. The stimulation occurs for 1.8 sec every 20 sec.
as §5

Data set [3] deals with histamine induced bronchoconstriction. Briefly: Bronchospasmolytic activity at oral and subcutaneous administration, histamine aerosol, unanaesthetized guinea-pigs. Particulars: for ED50: Cavia porcellus, read-out: Dose protecting 50 % of the test animals against the histamine aerosol during more than 4 minutes (ED50). The data set is classed as in vivo. As to the method: .The bronchospasmolytic activity of a compound of the invention at oral administration was tested on guinea-pigs. The compound according to Example 1 having the code designation D 2343, was tested. Terbutaline was used as reference substance.
The bronchospasmolytic effect was tested as the inhibitory effect on histamine induced bronchoconstriction in unanaesthetized guinea-pigs.
The test animals were exposed to a histamine mist generated by a Roth-Petersen nebulizer from a solution of 0.3 mg/ml of histamine-chloride.
Guinea-pigs, strain Dunkin-Hartle.y, both sexes, 190-250 g were used. Saline treated control animals start a forced and irregular breathing after less than 4 minutes exposure to the aerosol. Drug-treated animals sustaining the histamine aerosol 4 minutes without a breathing influence are regarded as protected. In the study with oral administration, the animals were starved for about 15 hours with water ad libitum before D 2343 or terbutaline was administered by a stomach tube.
Each compound was administered to 30-40 animals.
In the investigation with oral administration the time from drug administration to exposure of the animal to histamine was 30 minutes.
The ED50 doses are calculated on molar basis in moles per kg bodyweight of the test animal.

Data set [4] has as its target rat uterus (Rattus norvegicus, UniProt P10608). The data set is described as follows: Inhibitory activity on oxytocin and carbachol induced contractions of rat uterus in vitro. The arrangement: species or system Sprague-Dawley rats. The note with it: result in words. Here is the method:
'The uterus relaxing effect of the compounds of the invention was tested. Terbutaline was used as reference substance.
Female Sprague-Dawley rats, 150-200 g, were used. An oestrogen steroid (Estradurin, Leo), 0.25 mg/100 g, was administered s.c. 4-6 days before the experiments to bring the animals in oesterus.
The uterus horn were cut open longitudinally, mounted in organ baths in Locke solution at 33°C and gassed with carbogen. The contraction of the preparation was producted by oxytocin (Partocon, Ferring) or carbachol and given to the bath 3 min after administration of the test substance in a dose producing 70-80 % of the maximum contraction or 0.005-0.02 IE/ml of oxytocin and 0.2-0.6 µg/ml of carbacho- line chloride. The inhibitory effect produced by the test substance was eliminated by propranolol (1 µg/ml or 0.4x10^-5 M given to the bath 15 minutes before the drugs).
The tension changes were recorded isometrically (transducer FP03 and Grass polygraph P5).
The results are given as the concentration of the test compound which reduces the contraction induced by oxytocin and carbachol, respectively, by 50 % (EC 50).
Oxytocinseries: 10 preparations from 6 animals Carbacholseries: 9 preparations from 5 animals

The nature of data set [5]: Acute toxicity in mice. The note with it: mouse, in vivo. As to the method:
The acute toxicity of the compound D 2343 of the invention was investigated.
Male mice (NMRI) 20-25 g were used. The test compound was administered intravenously (by tail vein), subcutaneously. intraperitoneally and orally (by stomach tube to starved animals) in 6 dose levels in log- sequence with 10 or more animals tested at each dose level to determine the LD50'
After toxic doses the death followed within the first hour after i.v., s.c. and i.p. and during the first three hours after p.o. administration. No further mortality was noted during the following 5 days the animals were observed.

Values joined by “and” are separate entries in the source; they are usually repeats but may differ in a detail not shown here. Equal entries are not always repeated. Where two headings read alike, the source gives them in different places.

rat uterus, sequence (P10608 whole entry): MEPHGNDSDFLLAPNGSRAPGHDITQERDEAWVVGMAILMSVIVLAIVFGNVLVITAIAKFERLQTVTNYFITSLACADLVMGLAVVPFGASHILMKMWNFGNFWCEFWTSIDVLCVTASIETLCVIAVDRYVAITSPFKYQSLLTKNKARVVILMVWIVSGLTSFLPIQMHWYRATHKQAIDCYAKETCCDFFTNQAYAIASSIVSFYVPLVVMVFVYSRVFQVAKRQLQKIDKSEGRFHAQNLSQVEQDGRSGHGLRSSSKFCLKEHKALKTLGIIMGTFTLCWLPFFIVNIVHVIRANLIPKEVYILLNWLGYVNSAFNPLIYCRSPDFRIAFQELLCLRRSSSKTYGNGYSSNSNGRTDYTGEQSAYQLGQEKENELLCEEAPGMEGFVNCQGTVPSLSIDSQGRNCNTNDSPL

For `COc1ccccc1CCC(C)(C)NCC(O)c1ccc(O)cc1.Cl` (stereo not drawn) [D 2343, 1-(4-hydroxyphenyl)--2-[1,1-dimethyl-3-(2-methoxyphenyl)propylamino]-ethanol hydrochloride], the “Bronchospasmolytic effect in relation to the bronchospasmolytic effect of terbutaline” value in data set [1] worked out at 2.9 ±0.6. In data set [2], the “Tremorogenic effect in relation to the tremorogenic effect of terbutaline” value was 0.5 and 0.5 ±0.1. In addition, the ED50 in data set [3] (0.5 h, Oral administration (stomach tube, starved), 30 minutes before histamine) was found to be 2.51 ± 0.39 µmol/kg; in data set [3] (sc, 0.25 h, Subcutaneous administration, 15 minutes before histamine challenge), 0.34 ± 0.06 µmol/kg. Besides, the “times more active than terbutaline” value in data set [3] (oral administration) is reported as 2.1 times; in data set [3] (subcutaneous administration), 2.7 times. Further, in data set [4], the “potency as uterus relaxing agent compared with terbutaline” value is “more potent as uterus relaxing agent than terbutaline”. Also, the 50% lethal dose (LD50) in data set [5] (ip, male mice (NMRI)) worked out at 45 mg/kg; in data set [5] (ip, male mice (NMRI), M = 378.5) it was 120 µmol/kg; in data set [5] (iv, male mice (NMRI)), 13 mg/kg; in data set [5] (iv, male mice (NMRI), M = 378.5) it was 35 µmol/kg; in data set [5] (po, starved male mice (NMRI)) it was 170 mg/kg; in data set [5] (po, starved male mice (NMRI), M = 378.5), 450 µmol/kg. Moreover, the LD50 worked out at 50 mg/kg in data set [5] (sc, male mice (NMRI)) and 130 µmol/kg in data set [5] (sc, male mice (NMRI), M = 378.5).

As usually defined, the ED50 is the dose that gives a 50% effect, or the effect in half of the subjects. As usually defined, the LD50 is the dose at which mortality reaches 50%. Low readings indicate greater toxicity, high ones lower toxicity.
